{"source": "patent US7897602B2", "about": "“Indolinone compounds as kinase inhibitors” (Development Center for Biotechnology, priority 2009, dated 2011)", "type_in_all_cases": "biochemical", "key": {"PDGFR-β kinase": {"biological_target": "T1, PDGFR-β kinase (Homo sapiens, UniProt P09619)", "T1 construct": "recombinant N-terminal 6×His-tagged PDGFR-β kinase domain construct expressed by baculovirus; 6xHis (N); made in house", "T1 sequence (P09619 600-962 limits assumed)": "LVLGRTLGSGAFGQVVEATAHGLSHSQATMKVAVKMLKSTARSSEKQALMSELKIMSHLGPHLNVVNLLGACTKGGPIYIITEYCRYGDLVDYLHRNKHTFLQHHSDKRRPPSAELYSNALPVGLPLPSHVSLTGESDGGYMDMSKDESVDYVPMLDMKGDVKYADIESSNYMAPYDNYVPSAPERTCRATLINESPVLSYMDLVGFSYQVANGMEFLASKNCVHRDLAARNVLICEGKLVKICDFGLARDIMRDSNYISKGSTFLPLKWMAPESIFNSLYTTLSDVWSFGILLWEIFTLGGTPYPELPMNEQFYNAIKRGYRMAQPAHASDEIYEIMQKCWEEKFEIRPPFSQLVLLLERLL", "assay": "PDGFR-β kinase assay (33P incorporation into Poly(Glu-Tyr))", "settings": "500 nM test compound", "procedure,_shortened": "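His-tagged PDGFR-β kinase domain (55 ng) with Poly(Glu-Tyr) 4:1, 30 μM ATP plus [33P]-γ-ATP, pH 7.0 MnCl2 buffer, and 500 nM compound for 30 min at 30° C. Filter-bound radioactivity counted; inhibition computed relative to DMSO control.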"}, "Aurora A kinase": {"biological_target": "T2, Aurora A kinase (Homo sapiens, UniProt O14965)", "T2 construct": "purchased Upstate", "T2 sequence (O14965 1-403)": "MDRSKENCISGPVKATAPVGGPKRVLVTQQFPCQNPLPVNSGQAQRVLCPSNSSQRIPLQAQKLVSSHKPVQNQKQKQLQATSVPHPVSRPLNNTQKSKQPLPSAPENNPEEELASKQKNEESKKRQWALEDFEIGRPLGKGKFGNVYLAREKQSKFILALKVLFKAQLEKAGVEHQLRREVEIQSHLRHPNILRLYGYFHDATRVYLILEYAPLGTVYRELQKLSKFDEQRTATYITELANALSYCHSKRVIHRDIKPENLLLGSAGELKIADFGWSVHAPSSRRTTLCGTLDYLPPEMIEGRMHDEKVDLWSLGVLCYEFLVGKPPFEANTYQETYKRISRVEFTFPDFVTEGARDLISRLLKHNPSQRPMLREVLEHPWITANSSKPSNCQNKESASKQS", "assay": "Aurora A kinase assay ([γ-33P]ATP, CHOCKtide substrate)", "settings": "1.0 μM test compound", "procedure,_shortened": "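Radiometric filter-binding format: 33P incorporation into CHOCKtide counted after acid stop and filtration. Reactions ran 30 min at 33 °C, Aurora A with 10 μM ATP, Aurora B with 40 μM ATP. IC50 taken as concentration giving half-maximal kinase inhibition.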"}, "Flt3 kinase": {"biological_target": "T3, Flt3 kinase (Homo sapiens, UniProt P36888)", "T3 construct": "recombinant N-terminal 6×His-tagged Flt3 kinase domain construct expressed from baculovirus; 6xHis (N); made in house", "T3 sequence (P36888 610-943 limits assumed)": "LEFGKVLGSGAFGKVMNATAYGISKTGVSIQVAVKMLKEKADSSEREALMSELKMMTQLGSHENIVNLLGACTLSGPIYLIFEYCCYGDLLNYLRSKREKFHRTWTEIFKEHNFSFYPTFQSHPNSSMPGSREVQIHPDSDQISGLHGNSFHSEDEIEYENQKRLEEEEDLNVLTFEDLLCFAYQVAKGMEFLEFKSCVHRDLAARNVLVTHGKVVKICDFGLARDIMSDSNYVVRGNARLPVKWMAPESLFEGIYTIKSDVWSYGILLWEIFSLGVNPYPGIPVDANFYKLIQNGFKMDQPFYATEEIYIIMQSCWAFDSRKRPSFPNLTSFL", "assay": "Flt3 kinase assay (33P incorporation into Poly(Glu-Tyr))", "settings": "100 nM test compound; read-out: Inhibition at 100 nM (%) Flt-3", "procedure,_shortened": "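Baculovirus-expressed His-tagged Flt3 kinase domain (5 ng) with Poly(Glu-Tyr) 4:1 substrate, 100 μM ATP plus [33P]-γ-ATP, in MOPS pH 7.0 buffer, 30 min at 30 °C. Compound tested at a single 100 nM concentration; filter-bound radioactivity counted and percent inhibition calculated relative to DMSO control.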"}}}
{"smiles": "CN(c1cccc(Cl)c1)S(=O)(=O)c1ccc2c(c1)/C(=C/c1[nH]c3c(c1CCC(=O)O)C(=O)CCCC3)C(=O)N2", "note": "[DCB-70148, (Z)-3-(2-((5-(N-(3-chlorophenyl)-N-methylsulfamoyl)-2-oxoindolin-3-ylidene)methyl)-4-oxo-1,4,5,6,7,8-hexahydrocyclohepta[b]pyrrol-3-yl)propanoic acid]", "values": [{"measurement": "inhibition at 0.5 µM", "setting": "PDGFR-β kinase", "result": 16.1, "unit": "%"}, {"measurement": "inhibition at 1 µM", "setting": "Aurora A kinase", "result": 80.7, "unit": "%"}, {"measurement": "inhibition at 0.1 µM", "setting": "Flt3 kinase", "result": 9.7, "unit": "%"}]}
{"smiles": "CCOC(=O)CCc1c(/C=C2\\C(=O)Nc3ccc(NC(=O)c4ccc(OC)cc4)cc32)[nH]c2c1C(=O)CCC2", "note": "[DCB-70141, (Z)-ethyl 3-(2-((5-(4-methoxybenzamido)-2-oxoindolin-3-ylidene)methyl)-4-oxo-4,5,6,7-tetrahydro-1H-indol-3-yl)propanoate]", "values": [{"measurement": "inhibition at 0.5 µM", "setting": "PDGFR-β kinase", "result": 1.4, "unit": "%"}, {"measurement": "inhibition at 1 µM", "setting": "Aurora A kinase", "result": 9.8, "unit": "%"}, {"measurement": "inhibition at 0.1 µM", "setting": "Flt3 kinase", "result": 10.7, "unit": "%"}]}
{"smiles": "COc1ccc(C(=O)Nc2ccc3c(c2)/C(=C/c2[nH]c4c(c2CCC(=O)O)C(=O)CCC4)C(=O)N3)cc1", "note": "[DCB-70143, (Z)-3-(2-((5-(4-methoxybenzamido)-2-oxoindolin-3-ylidene)methyl)-4-oxo-4,5,6,7-tetrahydro-1H-indol-3-yl)propanoic acid]", "values": [{"measurement": "inhibition at 0.5 µM", "setting": "PDGFR-β kinase", "result": 1, "unit": "%"}, {"measurement": "inhibition at 1 µM", "setting": "Aurora A kinase", "result": 31.8, "unit": "%"}, {"measurement": "inhibition at 0.1 µM", "setting": "Flt3 kinase", "result": 6, "unit": "%"}]}
{"smiles": "O=C(O)CCc1c(/C=C2\\C(=O)Nc3ccc(S(=O)(=O)Nc4ccc(F)c(Cl)c4)cc32)[nH]c2c1C(=O)CCCC2", "note": "[DCB-70149, (Z)-3-(2-((5-(N-(3-chloro-4-fluorophenyl)sulfamoyl)-2-oxoindolin-3-ylidene)methyl)-4-oxo-1,4,5,6,7,8-hexahydrocyclohepta[b]pyrrol-3-yl)propanoic acid]", "values": [{"measurement": "inhibition at 0.5 µM", "setting": "PDGFR-β kinase", "result": 10.8, "unit": "%"}, {"measurement": "inhibition at 1 µM", "setting": "Aurora A kinase", "result": 77.5, "unit": "%"}, {"measurement": "inhibition at 0.1 µM", "setting": "Flt3 kinase", "result": 7.3, "unit": "%"}]}
